Reference: ChEMBL document CHEMBL4308841, “Synthesis, in vitro antiproliferative activity, and kinase inhibitory effects of pyrazole-containing diarylureas and diarylamides” (Eur J Med Chem, 2018)

Columns and labels:
NCI-H522 [1] = assay: Growth inhibition of human NCI-H522 cells assessed as cell growth at 10 uM incubated for 48 hrs by sulforhodamine B assay relative to control; assay type: functional; conditions: NCI-H522, 48 h, read-out: Activity
NCI-H522 [2] = assay: Growth inhibition of human NCI-H522 cells incubated for 48 hrs by sulforhodamine B assay; assay type: functional, cell-based; conditions: NCI-H522, 48 h
HT-29 [3] = assay: Growth inhibition of human HT-29 cells incubated for 48 hrs by sulforhodamine B assay; assay type: functional, cell-based; conditions: HT-29, 48 h
M14 = assay: Growth inhibition of human M14 cells incubated for 48 hrs by sulforhodamine B assay; assay type: functional, cell-based; conditions: M14, 48 h
SK-MEL-2 = assay: Growth inhibition of human SK-MEL-2 cells incubated for 48 hrs by sulforhodamine B assay; assay type: functional, cell-based; conditions: SK-MEL-2, 48 h
OVCAR-3 = assay: Growth inhibition of human OVCAR3 cells incubated for 48 hrs by sulforhodamine B assay; assay type: functional, cell-based; conditions: OVCAR-3, 48 h
A498 = assay: Growth inhibition of human A498 cells incubated for 48 hrs by sulforhodamine B assay; assay type: functional, cell-based; conditions: A498, 48 h
HL-60(TB) [4] = assay: Growth inhibition of human HL-60(TB) cells assessed as cell growth at 0.01 uM incubated for 48 hrs by sulforhodamine B assay relative to control; assay type: functional; conditions: HL-60, 48 h, read-out: Activity
HOP-62 [5] = assay: Growth inhibition of human HOP62 cells assessed as cell growth at 0.01 uM incubated for 48 hrs by sulforhodamine B assay relative to control; assay type: functional; conditions: HOP-62, 48 h, read-out: Activity
MDA-MB-435 [6] = assay: Growth inhibition of human MDA-MB-435 cells assessed as cell growth at 0.01 uM incubated for 48 hrs by sulforhodamine B assay relative to control; assay type: functional; conditions: MDA-MB-435, 48 h, read-out: Activity
OVCAR-8 = assay: Growth inhibition of human OVCAR8 cells assessed as cell growth at 0.01 uM incubated for 48 hrs by sulforhodamine B assay relative to control; assay type: functional; conditions: OVCAR-8, 48 h, read-out: Activity
K562 [7] = assay: Growth inhibition of human K562 cells assessed as cell growth at 0.1 uM incubated for 48 hrs by sulforhodamine B assay relative to control; assay type: functional; conditions: K562, 48 h, read-out: Activity
MOLT-4 [8] = assay: Growth inhibition of human MOLT4 cells assessed as cell growth at 0.1 uM incubated for 48 hrs by sulforhodamine B assay relative to control; assay type: functional; conditions: MOLT-4, 48 h, read-out: Activity
SR = assay: Growth inhibition of human SR cells assessed as cell growth at 0.1 uM incubated for 48 hrs by sulforhodamine B assay relative to control; assay type: functional; conditions: read-out: Activity
HCC 2998 [9] = assay: Growth inhibition of human HCC2998 cells assessed as cell growth at 0.1 uM incubated for 48 hrs by sulforhodamine B assay relative to control; assay type: functional; conditions: HCC 2998, 48 h, read-out: Activity
HCT-15 = assay: Growth inhibition of human HCT15 cells assessed as cell growth at 0.1 uM incubated for 48 hrs by sulforhodamine B assay relative to control; assay type: functional; conditions: HCT-15, 48 h, read-out: Activity
SF-295 = assay: Growth inhibition of human SF295 cells assessed as cell growth at 0.1 uM incubated for 48 hrs by sulforhodamine B assay relative to control; assay type: functional; conditions: SF-295, 48 h, read-out: Activity
MDA-MB-468 [10] = assay: Growth inhibition of human MDA-MB-468 cells assessed as cell growth at 0.1 uM incubated for 48 hrs by sulforhodamine B assay relative to control; assay type: functional; conditions: MDA-MB-468, 48 h, read-out: Activity
K562 [11] = assay: Growth inhibition of human K562 cells assessed as cell growth at 1 uM incubated for 48 hrs by sulforhodamine B assay relative to control; assay type: functional; conditions: K562, 48 h, read-out: Activity
HOP-62 [12] = assay: Growth inhibition of human HOP62 cells assessed as cell growth at 1 uM incubated for 48 hrs by sulforhodamine B assay relative to control; assay type: functional; conditions: HOP-62, 48 h, read-out: Activity
KM12 = assay: Growth inhibition of human KM12 cells assessed as cell growth at 1 uM incubated for 48 hrs by sulforhodamine B assay relative to control; assay type: functional; conditions: KM12, 48 h, read-out: Activity
UO-31 = assay: Growth inhibition of human UO31 cells assessed as cell growth at 1 uM incubated for 48 hrs by sulforhodamine B assay relative to control; assay type: functional; conditions: UO-31, 48 h, read-out: Activity
DU-145 = assay: Growth inhibition of human DU145 cells assessed as cell growth at 1 uM incubated for 48 hrs by sulforhodamine B assay relative to control; assay type: functional; conditions: DU-145, 48 h, read-out: Activity
HL-60(TB) [13] = assay: Growth inhibition of human HL-60(TB) cells assessed as cell growth at 100 uM incubated for 48 hrs by sulforhodamine B assay relative to control; assay type: functional; conditions: HL-60, 48 h, read-out: Activity
K562 [14] = assay: Growth inhibition of human K562 cells assessed as cell growth at 100 uM incubated for 48 hrs by sulforhodamine B assay relative to control; assay type: functional; conditions: K562, 48 h, read-out: Activity
MOLT-4 [15] = assay: Growth inhibition of human MOLT4 cells assessed as cell growth at 100 uM incubated for 48 hrs by sulforhodamine B assay relative to control; assay type: functional; conditions: MOLT-4, 48 h, read-out: Activity
HCC 2998 [16] = assay: Growth inhibition of human HCC2998 cells assessed as cell growth at 100 uM incubated for 48 hrs by sulforhodamine B assay relative to control; assay type: functional; conditions: HCC 2998, 48 h, read-out: Activity
HT-29 [17] = assay: Growth inhibition of human HT-29 cells assessed as cell growth at 100 uM incubated for 48 hrs by sulforhodamine B assay relative to control; assay type: functional; conditions: HT-29, 48 h, read-out: Activity
MDA-MB-435 [18] = assay: Growth inhibition of human MDA-MB-435 cells assessed as cell growth at 100 uM incubated for 48 hrs by sulforhodamine B assay relative to control; assay type: functional; conditions: MDA-MB-435, 48 h, read-out: Activity
MDA-MB-468 [19] = assay: Growth inhibition of human MDA-MB-468 cells assessed as cell growth at 100 uM incubated for 48 hrs by sulforhodamine B assay relative to control; assay type: functional; conditions: MDA-MB-468, 48 h, read-out: Activity
[20] = read-out: LC50 (the source's name)
[21] = read-out: pLC50 (the source's name) (converted)

## O=C(Nc1cccc(-n2cc(-c3ccncc3)c(-c3cc(O)cc(Cl)c3)n2)c1)Nc1ccc(Cl)c(C(F)(F)F)c1
NCI-H522 [1]
  growth at 10 µM: -16%
NCI-H522 [2]; read-out: GI50
  GI50: 1320 nM
NCI-H522 [2]; [20]
  CC50: 19 µM
NCI-H522 [2]; read-out: TGI
  TGI: 44.8 µM
NCI-H522 [2]; read-out: pGI50 (converted)
  GI50: 1320 nM
NCI-H522 [2]; [21]
  CC50: 19.1 µM
NCI-H522 [2]; read-out: pTGI (converted)
  TGI: 4.47 µM
HT-29 [3]; read-out: GI50
  GI50: 2120 nM
HT-29 [3]; [20]
  CC50: 95.9 µM
HT-29 [3]; read-out: TGI
  TGI: 45.7 µM
HT-29 [3]; read-out: pGI50 (converted)
  GI50: 2140 nM
HT-29 [3]; [21]
  CC50: 10 µM
HT-29 [3]; read-out: pTGI (converted)
  TGI: 4.57 µM
M14; read-out: GI50
  GI50: 1720 nM
M14; [20]
  CC50: 55.8 µM
M14; read-out: TGI
  TGI: 38.8 µM
M14; read-out: pGI50 (converted)
  GI50: 1700 nM
M14; [21]
  CC50: 8.71 µM
M14; read-out: pTGI (converted)
  TGI: 3.89 µM
SK-MEL-2; read-out: GI50
  GI50: 2200 nM
SK-MEL-2; [20]
  CC50: 94.2 µM
SK-MEL-2; read-out: TGI
  TGI: 45.5 µM
SK-MEL-2; read-out: pGI50 (converted)
  GI50: 2240 nM
SK-MEL-2; [21]
  CC50: 9.33 µM
SK-MEL-2; read-out: pTGI (converted)
  TGI: 4.57 µM
OVCAR-3
  IC50: 2340 nM
OVCAR-3; read-out: GI50
  GI50: 2340 nM
OVCAR-3; [20]
  CC50: > 100 µM
OVCAR-3; read-out: TGI
  TGI: 50 µM
OVCAR-3; read-out: pGI50 (converted)
  GI50: 2340 nM
OVCAR-3; [21]
  CC50: > 100 µM
OVCAR-3; read-out: pTGI (converted)
  TGI: 6.61 µM
A498; read-out: GI50
  GI50: 3.9 µM
A498; [20]
  CC50: 44 µM
A498; read-out: TGI
  TGI: 15.5 µM
A498; read-out: pGI50 (converted)
  GI50: 3.89 µM
A498; [21]
  CC50: 44.7 µM
A498; read-out: pTGI (converted)
  TGI: 15.5 µM
HL-60(TB) [4]
  growth at 0.01 µM: 95%
HOP-62 [5]
  growth at 0.01 µM: 99%
MDA-MB-435 [6]
  growth at 0.01 µM: 97%
OVCAR-8
  growth at 0.01 µM: 102%
K562 [7]
  growth at 0.1 µM: 94%
MOLT-4 [8]
  growth at 0.1 µM: 92%
SR
  growth at 0.1 µM: 98%
HCC 2998 [9]
  growth at 0.1 µM: 97%
HCT-15
  growth at 0.1 µM: 88%
SF-295
  growth at 0.1 µM: 93%
MDA-MB-468 [10]
  growth at 0.1 µM: 94%
K562 [11]
  growth at 1 µM: 55%
HOP-62 [12]
  growth at 1 µM: 96%
KM12
  growth at 1 µM: 56%
UO-31
  growth at 1 µM: 84%
DU-145
  growth at 1 µM: 96%
HL-60(TB) [13]
  growth at 100 µM: -15%
K562 [14]
  growth at 100 µM: -9%
MOLT-4 [15]
  growth at 100 µM: -39%
HCC 2998 [16]
  growth at 100 µM: -88%
HT-29 [17]
  growth at 100 µM: -88%
MDA-MB-435 [18]
  growth at 100 µM: -93%
MDA-MB-468 [19]
  growth at 100 µM: -29%
